In PMC10610379, “Epidrugs as Promising Tools to Eliminate Plasmodium falciparum Artemisinin-Resistant and Quiescent Parasites” (Pharmaceutics, 2023):
Values joined by “and” are separate entries in the source; they are usually repeats but may differ in a detail not shown here. Equal entries are not always repeated. Where two headings read alike, the source gives them in different places.

Columns and labels:
[1] = Cytotoxicity evaluation by MTT assay; assay type: cell-based; conditions: monkey, Vero cells, * mean of 2 experiments
Description: The cytotoxicity of all newly synthesized compounds was evaluated on the Vero cell lines (isolated from monkey kidney cells, gift from the Faculty of Pharmacy, Toulouse, France) by MTT assay according to Mosmann with slight modifications. Briefly, cells in MEM medium supplemented with 10% fetal calf serum, 2 mM L-glutamine, antibiotics (100 U/mL penicillin and 100 µg/mL streptomycin), and NEAA 1X, were seeded in 96-well plates. After a 24-h incubation at 37 °C and 5% CO2 in a humidified atmosphere, compounds were added with concentrations ranging from 5 nM to 50 μM in duplicate. […] The security index was calculated as the ratio of cytotoxicity/antiplasmodial activity.

[2] = system: P. falciparum strains F32-ART and F32-TEM; assay: Standard chemosensitivity assay, both strains; assay type: cell-based; conditions: Plasmodium falciparum, F32, read-out: Antiplasmodial activity IC50
Description: (§1) The antimalarial activities of the compounds were evaluated on both strains. […] Antimalarial activities were determined with the SYBR Green I method. Each drug concentration was tested in triplicate. The parasites were incubated with the drugs for 48 h. Plates were read on a BioTek FLX800 Microplate Fluorescence Reader (Bio-Tek instruments, Winooski, VT, USA) (λexcitation = 485 nm, λemission = 528 nm). Control parasite culture (i.e., RPMI with 0.5% DMSO) was referred to as 100% growth. IC50 and IC90 values were determined using GraphPad Prism version 7.05 (GraphPad Software, San Diego, CA, USA). Results were the mean of 3 independent experiments. When it is relevant, statistical significance between results obtained with both parasite strains was determined by a Mann–Whitney test using GraphPad Prism version 7.05.

[3] = system: Plasmodium falciparum F32-TEM (artemisinin-sensitive twin line); assay: Standard chemosensitivity assay (SYBR Green I), F32-TEM; assay type: cell-based; conditions: Plasmodium falciparum, read-out: Antiplasmodial Activity: IC50, F32-TEM
Description: (§2) They differ by eight mutations in seven genes (PF3D7_0110400, PF3D7_1343700, PF3D7_0213400, PF3D7_1115700, PF3D7_1302100, PF3D7_1459600, PF3D7_1464500) among them the M476I mutation on the kelch13 gene. F32-ART and F32-TEM strains have RSA^0–3 h values up to 12% and less than 0.1%, respectively. […] Both strains were cultured, in the same conditions, according to the Trager and Jensen protocol with modifications. Briefly, parasites were cultivated in RPMI-1640 medium (Biowest) at 2% hematocrit in human red blood cells and 5% human serum (EFS, French Blood Bank) under 5% CO2 in a humid atmosphere at 37 °C.
as §1

[4] = system: Plasmodium falciparum F32-ART (artemisinin-resistant strain); assay: Standard chemosensitivity assay (SYBR Green I), F32-ART; assay type: cell-based; conditions: for IC50: Plasmodium falciparum, read-out: Antiplasmodial Activity: IC50, F32-ART; for Selectivity Index CC50/IC50: ratio cytotoxicity (mammalian cell type of the CC50)/antiplasmodial activity on F32-ART
Description: as §2, §1

Jurkat = conditions: read-out: Cytotoxicity: CC50 (Jurkat), data from literature ref 41; cited from earlier work
H4K8ac = assay: Immunoblotting, histone mark abundance in F32-ART parasites; assay type: cell-based, Plasmodium falciparum; conditions: 90nM
Description: (§3) Abundance of methylated and acetylated histone was determined in parasite cultures in different conditions: “not-treated”, “DHA 24 h”, “DHA 6 h/DHA 24 h” and “DHA 6 h/DHA + compound to be tested 24 h”. At the end of the treatments, parasite cultures were washed in RPMI-1640 and then twice in PBS 1× before red blood cell lysis with 0.075% saponin (Sigma-Aldrich) in PBS. Parasite ghosts were washed 3 times in PBS before incubating the ghosts with E1A lysis buffer (50 mM Hepes pH 7.5; 250 mM NaCl; 5 mM EDTA; 0.1% Triton X-100, 1 mM DTT, 0.2 mM PMSF supplemented with complete Mini EDTA-free protease inhibitor cocktail (Roche®, Basel, Switzerland)) for 15 min. Ghosts were then sonicated for 3 × 15s ON/OFF cycles to shear parasite membranes. Debris were pelleted by centrifuging for 15 min at 13,800× g and 4 °C, and supernatants (containing parasitic proteins) were then collected. Protein concentrations were determined using BCA assay (Bio-Rad, Hercules, CA, USA) according to the manufacturer’s instructions. For each sample, 10 µg of proteins were mixed with 4× sample buffer (10 mL 50% Glycerol, 5 mL 0.5 M Tris HCl pH 6.8, 4 mL 20% SDS, 0.02% Bromophenol blue for a total solution volume of 20 mL) and 100 mM DTT and then separated on 15% SDS-PAGE gels in Laemmli running buffer. Gels were then wet-transferred O/N at 20 V onto PVDF membranes. Membranes were blocked in TBST for 1 h at room temperature. Bottom parts were then probed with histone antibodies while upper parts were probed with PFALDOLASE antibody (Abcam, ab38905, Cambridge, UK) at 1:20,000 dilution. The following primary antibodies were used: anti-H3K4me1 (Abcam, ab8895); anti-H3K4me2 (Abcam, ab35356); anti-H3K9me2 (Abcam, ab1220); anti-H3K9me3 (Millipore, 07-442, Burlington, MA, USA); anti-tetra-acetyl H4 (Millipore, 06-866); anti-H4K8Ac (Millipore, 07-328); anti-H4K20me3 (Abcam, ab9053); anti-H3K4me3 (Diagenode) and anti-H3K9Ac (Millipore, 07-352) at 1:10,000. The following secondary antibodies were used: anti-rabbit IgG-Peroxidase produced in goat (Sigma-Aldrich) or anti-mouse IgG-Peroxidase (Sigma-Aldrich); at 1:20,000 dilutions. Blots were developed using ECL Prime Western Blotting (GE Healthcare, Chicago, IL, USA) and read on a Chemidoc touch imaging software. Densitometry analysis was performed by using ImageLab software from Bio-Rad. To determine if variations in histone abundances were statistically significant, immunoblotting experiments were performed on 3 biological replicates and each run was performed twice.

H4ac4 = assay: as above; assay type: cell-based, Plasmodium falciparum; conditions: 90nM
Description: as §3

[5] = system: ART-resistant parasites F32-ART at the quiescent stage; assay: Quiescent-stage Survival Assay (QSA), 48-h exposure; assay type: cell-based, Plasmodium falciparum
Description: The sensitivity of the ART-resistant parasites F32-ART at the quiescent stage towards the different molecules was determined using the QSA (Quiescent-stage Survival Assay), as previously described.
Epidrugs were tested at their IC90 values. In the present study, quiescence was induced using 3 µM of ART or 700 nM of DHA [28]. Thus, D-sorbitol synchronized ring-stage parasites at 3% parasitemia and 2% hematocrit (5 mL of culture per well in 6-well plates) were first exposed to 6 h of ART or DHA to induce quiescence and then to 48 h of the combination “ART or DHA + compound to be tested”. The combinations “ART 6 h/ART 48 h” or “DHA 6 h/DHA 48 h” were used as controls. The compounds were evaluated, in parallel, on proliferating parasites, i.e., without any pre-treatment. After drug exposure, parasite cultures were washed with 40 mL of RPMI-1640 medium and cultured in drug-free conditions supplemented with 10% human serum in new wells. The parasitemia for each condition was then microscopically monitored every 2 days. Culture media were renewed twice a week and 25 µL of fresh red blood cells were added once a week. Obtained data were used to perform Kaplan–Meier survival analyses considering censored data. The outcome was defined as the day when parasite cultures reached the initial parasitemia (3%) and data were considered as censored if no parasite recrudescence was observed during the 30-day experiment timeframe. When relevant, statistical significance between results obtained for the conditions “ART/ART” and “ART/ART + compound to be tested” or “DHA/DHA” and “DHA/DHA + compound to be tested” was determined by a Log Rank (Mantel Cox) test using GraphPad Prism version 7.05. For the best compounds targeting histones, in order to compare western blots data, modified QSAs were carried out by comparing “DHA 6 h/DHA 24 h” versus “DHA 6 h/DHA + compound to be tested 24 h”.

[6] = system: ART-resistant parasites F32-ART at the quiescent stage; assay: Modified QSA, 24-h exposure; assay type: cell-based, Plasmodium falciparum; conditions: DHA 700 nM, compound at its IC90, 24-h exposure
Description: Epidrugs were tested at their IC90 values. In the present study, quiescence was induced using 3 µM of ART or 700 nM of DHA [28]. Thus, D-sorbitol synchronized ring-stage parasites at 3% parasitemia and 2% hematocrit (5 mL of culture per well in 6-well plates) were first exposed to 6 h of ART or DHA to induce quiescence and then to 48 h of the combination “ART or DHA + compound to be tested”. The combinations “ART 6 h/ART 48 h” or “DHA 6 h/DHA 48 h” were used as controls. The compounds were evaluated, in parallel, on proliferating parasites, i.e., without any pre-treatment. […] The parasitemia for each condition was then microscopically monitored every 2 days. […] When relevant, statistical significance between results obtained for the conditions “ART/ART” and “ART/ART + compound to be tested” or “DHA/DHA” and “DHA/DHA + compound to be tested” was determined by a Log Rank (Mantel Cox) test using GraphPad Prism version 7.05. […]
To collect enough material for immunoblotting, we performed the analysis after a 24-h exposure of DHA-treated parasites to the epidrug and in parallel evaluated the activity of the three epidrugs in a modified QSA, in which quiescent parasites were exposed to the drug to be tested for 24 instead of 48 h, as in our previous experiments (Figure 2).

NOMO1 = conditions: read-out: Cytotoxicity: CC50 (NOMO1), data from literature ref 51; cited from earlier work
GM15850 = system: GM15850; design: method as in PMID 18953021; conditions: data from literature ref 46, read-out: Cytotoxicity: CC50 (GM15850); cited from earlier work
monocytes = system: monocytes; design: method as in PMID 27091512; conditions: data from literature ref 47, read-out: Cytotoxicity: CC50 (monocytes); cited from earlier work
[7] = F32-TEM, 48 h incubation, SYBR Green I, mean ± SEM of 3 experiments (* mean of 2)
[8] = F32-ART, 48 h incubation, SYBR Green I, mean ± SEM of 3 experiments (* mean of 2)
[9] = 24 h, F32-ART ring stage proliferating, 3 replicates (Fig 3A)
[10] = DHA 6 h/DHA + apicidin 24 h, F32-ART DHA-treated parasites, 3 replicates (Fig 3E)

Cc1ncsc1-c1ccc(CNC(=O)[C@@H]2C[C@@H](O)CN2C(=O)[C@@H](NC(=O)COCCOCCOCCNC(=O)C[C@@H]2N=C(c3ccc(Cl)cc3)c3c(sc(C)c3C)-n3c(C)nnc32)C(C)(C)C)cc1 [MZ1]
CC50 [1]: > 50 µM | IC50 [2]: 1.3 to 1.7 µM | IC50 [3, 7]: 1.3 µM | IC50 [4, 8]: 1.7 µM | Selectivity Index CC50/IC50 [4]: >30

CCC(=O)CCCCC[C@@H]1NC(=O)[C@H]2CCCCN2C(=O)[C@H]([C@@H](C)CC)NC(=O)[C@H](Cc2cn(OC)c3ccccc23)NC1=O [Apicidin]
IC50 [3, 7]: 0.036 ± 0.005 µM | CC50 (Jurkat): 10 µM | Fold change of H4K8ac abundance, apicidin vs DMSO (H4K8ac; [9]): 0.98 and 1.16 and 0.96 | Fold change of H4K8ac abundance, apicidin, quiescent stage (H4K8ac; [10]): increase and 1.81 and 2.83 and 2.40 | Fold change of H4ac4 abundance, apicidin vs DMSO (H4ac4; [9]): increase and 1.70 and 1.40 and 1.39 | Fold change of H4ac4 abundance, apicidin, quiescent stage (H4ac4; [10]): increase and 2.21 and 2.92 and 2.08 | Delay in parasite recrudescence time (difference between median recrudescence times), ART/ART + compound vs ART/ART ([5]; quiescence induced with ART 3 µM 6 h, then 48 h ART + compound at its IC90): 8 days | Delay in recrudescence time, DHA/DHA + compound vs DHA/DHA ([5]; quiescence induced with DHA 700 nM 6 h, then 48 h DHA + compound at its IC90): slightly shorter delay | Recrudescence in modified QSA, DHA 6 h/DHA + compound 24 h vs DHA 6 h/DHA 24 h [6]: no difference in recrudence time | IC50 [4, 8]: 0.036 ± 0.009 µM | Selectivity Index CC50/IC50 [4]: 280

CCCCCCCc1ccc(CCc2cccc(O)c2C(=O)O)cc1 [MG149]
IC50 ([3]; F32, 48 h): > 10 µM | CC50 (NOMO1): 51 µM | IC50 ([4]; F32, 48 h): > 10 µM

Cc1ccc(NC(=O)CCCCCC(=O)Cc2ccccc2N)cc1 [TC-H 106]
IC50 [3, 7]: > 10 µM | CC50 (GM15850): 6.3 µM | IC50 [4, 8]: > 10 µM | Selectivity Index CC50/IC50 [4]: <0.6

Cn1cc(/C=C/C(=O)c2cccc(F)c2)cc1/C=C/C(=O)NO [MC 1568]
IC50 [3, 7]: > 10 µM | CC50 (monocytes): 10 µM | IC50 [4, 8]: > 10 µM | Selectivity Index CC50/IC50 [4]: <1
